Where a name gives a salt, the structure may show the parent alone. Read-outs that look alike come from different tables or passages of the source.
Experiments:
PAM 212 keratinocytes [1] = test: PAM 212 keratinocyte growth inhibition (photo-toxicity with UVA / dark-toxicity without light); type: cell-based; settings: UVA 320-400 nm, 1.28 J/cm2, growth 4-5 days
Experimental: Representative examples of the compounds described and claimed herein were tested in this assay for biological activity and found to be potent inhibitors of cell growth. Inhibition of cell growth was rapid, dependent on concentration, and required light activation. […] A description of this assay follows.
The photobiological activity was assayed using a keratinocyte cell line grown in a monolayer culture. In this assay, PAM 212 keratinocytes were grown in Dulbecco's Modified Eagle's medium supplemented with 10% newborn calf serum in a 5% carbon dioxide incubator. Cells were inoculated into 6-well Falcon plastic culture dishes at 25,000 cells per well. After 24 hours, the medium was charged to fresh growth medium supplemented with increasing concentrations of the test compounds or the control medium. Controls and test concentrations were analyzed in triplicate.
These plates were then incubated in a 37 degree C. carbon dioxide incubator. After 30 minutes culture plates were exposed to UVA light (UVA, 320-400 nm) emitted from a bank of four BLB fluorescent light tubes (F40 BL, Sylvania) placed approximately 10 cm above the cell culture plates. The incident light on the culture plates was 2.4 mW/cm^2 as measured with an International Light UV radiometer, Model IL 442A. The cells were exposed to 1.28 J/square centimeter of UVA.
After completion of the irradiation phase, the cell culture medium was drained, the cells refed with fresh growth medium and then re-incubated in the carbon dioxide incubator to allow for cell growth. After 4-5 days of growth the culture plates were removed from the incubator and the cell culture medium was drained. The cells were detached from the plates with trypsin and counted in a Coulter Counter. For control cells or for cells treated with test compounds, cell growth was determined as a percentage of control. […] This value is shown in Table I for a variety of phototherapeutics.

[2] = system: Mycobacterium tuberculosis H37Rv; test: Antituberculosis primary in vitro screen, BACTEC 460; type: cell-based, Mycobacterium tuberculosis H37Rv ATCC 27294; settings: Mycobacterium tuberculosis, H37RV; 12.5 μg/mL, 37° C; read-out: Anti-tubercular Activity (% inhibition)
Aspergillus niger = test: Fungicidal assay, MIC against Aspergillus niger in MSY broth; type: cell-based; settings: Table II, four days at 28° C, in the dark, no unit in table (ppm levels)
Experimental: The antifungal activities of compounds synthesized were measured by determining the inhibition of growth of Aspergillus niger in a standard liquid medium. The liquid growth medium is described as a solution of mineral salts and yeast extract (MSY). The MSY broth was prepared as described in ASTM G21-70, and amended with glucose (10 g/l) and yeast extract (1 g/l). An aliquot ([…]) of sterile medium was dispensed into each test well of a standard 96 well microplate (Corning No. 430247). Stock solutions of test compounds were prepared by dissolving the materials in 9:1 (v/v) solutions of acetone:methanol. Appropriate volumes of stock solutions were added to the test wells in order to achieve the desired ppm levels. Each test well (plus controls) was then inoculated with […] of a standardized suspension of Aspergillus niger. The cell suspension was prepared by suspending viable cells from a slant of potato dextrose agar into sterile, deionized water. The suspension was then adjusted to provide OD686 =0.28. This density contains approximately 2.5×10^7 CFU (colony forming units)/ml. The microplates were incubated in the dark for four days at 28° C. The optical density for each well at 686 nm was then recorded automatically using a SpectraMax 340 microplate reader (Molecular Devices Corp., Sunnyvale, Calif.). All wells were visually inspected in order to corroborate data from the instrument.
The antifungal activity was measured as minimum inhibitory concentrations or MIC of the 5'-substituted-4',5'-dihydropsoralens.

Chlorella vulgaris = test: Algicidal assay, MIC against Chlorella in modified Allen's medium; type: cell-based; settings: Table III, 14 days, 26 to 28° C, no unit in table (ppm)
Experimental: To assay the activity of the 5'-substituted-4',5'-dihydropsoralens of the invention against Chlorella, the Allen method (A. A. Allen, […], Journal of Phycology, 4, 1-4) was employed. […] The minimum inhibitory concentration (MIC) of the compounds tested against the fungus Aspergillus niger using an MSY broth is shown in Table II.
Test tubes containing modified Allen's medium were treated with increasing dosages of the compound to be tested and inoculated with a suspension of algal cells. After fourteen days of incubation, algal growth was rated as positive or negative. The minimum inhibitory concentration (MIC) of the compound is the smallest dosage showing negative algal growth.
The apparatus required consisted of sterilized test tubes, 18-150 mm and an incubator, capable of a constant (±2° C.) temperature within 26 to 28° C. The following procedure was used:
(1) Stock solutions (g/200 g deionized water each) were generated with: K2 HPO4, 1.50 g; MgSO4, 7H2 O, 1.50 g; Na2 CO3, 0.80 g; CaCl2 2H2 O, 0.50 g; Na2 SiO3 9H2 O, 1.16 g, and Citric acid, 1.20 g.
(3) The modified Allen's medium was prepared in a volumetric flask by the addition of 1.5 g NaNO3, 5.0 mL stock solution K2 HPO4, 5.0 mL stock solution MgSO4 -- 7H2 O, 5.0 mL Stock solution Na2 CO3, 10.0 mL stock solution CaCl2 2H2 O, 10.0 mL stock solution Na2 SiO3 9H2 O, 1.0 mL stock solution Citric acid and 1.0 mL stock solution PIV metal with enough deionized water to make 1000 mL of medium (Allen, 1968). The pH was adjusted to 7.8 and 5 mL of medium is added to each test tube. The tubes were sterilized in the autoclave for 20 minutes at 15 psi at 121° C. The test tubes were allowed to cool to 45-50° C. before adding the test compound and the inoculurn to the medium.
(4) The inoculum was a cell suspension from a 14-day-old culture of Chlorella vulgaris (UTEX 26, University of Texas) that was grown in modified Allen's medium.
The concentration of the stock solution in water or acetone of the compound to be tested is dependent on the largest dose required to be tested. Dilutions of the stock solution were made so that 100 μL of the stock solution of the corresponiding dilution was added per test tube. 100 μL of the solvent was added to the control to prepare the stock solution.
The inoculation consists of the addition of 100 μL of inoculurn per test tube.
The incubation of the control test tube and the test tubes containing compound and inoculum occurred in an incubator set between 26 to 28° C., with the temperature not varying more than ±2° C. Light was provided by plant growth fluorescent tubes and the test tubes were allowed to stand in the incubator for 14 days.
Rating of the test tubes containing different dosages of the compound will be positive or negative. […] If the medium in the rubes remains colorless, a negative (not contaminated) rating is given. The control is always positive. The minimum inhibitory concentration (MIC) of the compound is determined to be the smallest dosage showing negative algal growth.

PAM 212 keratinocytes [3] = test: PAM 212 keratinocyte growth inhibition (photo-toxicity with UVA / dark-toxicity without light); type: cell-based
[4] = Mus musculus, PAM212, light or radiation study

Compound | IC50 (PAM 212 keratinocytes [1]; [4]) | IC50 (PAM 212 keratinocytes [1]) | IC50 (PAM 212 keratinocytes [3]) | also measured
Cc1c(I)c(=O)oc2c(C)c3c(cc12)CC(CI)O3 (stereo not shown) [R = I, T = I, 3-Iodo-4,8-dimethyl-5'-iodomethyl-4',5'-dihydropsoralen] | 4.2 µM | – | – | inhibition at 12.5 µg/mL [2]: 17%
CC(=O)[O][Hg][CH2]C1Cc2ccccc2O1 (stereo not shown) [T = HgOAc, 2-Acetomercurimethyl-2,3-dihydrobenzofuran] | – | 6.1 µM | 11 µM | MIC (Aspergillus niger): 16; MIC (Chlorella vulgaris): 10
Cc1cc(=O)oc2c(C)c3c(cc12)CC(C)O3 (stereo not shown) [R = H, T = H, reference compound] | 0.27 µM | – | – | –
Cc1c(F)c(=O)oc2c(C)c3c(cc12)CC(CBr)O3 (stereo not shown) [R = F, T = Br, 3-Fluoro-4,8-dimethyl-5'-bromomethyl-4',5'-dihydropsoralen] | – | 4 µM | – | –
Cc1cc(=O)oc2c(C)c3c(cc12)CC(CN(C)C)O3 (stereo not shown) [R = H, T = dimethyl amino iodide salt, 4,8-Dimethyl-5'-[(N,N-dimethylamino)methyl]-4',5'-dihydropsoralen Hydroiodide Salt] | 0.1 µM | – | – | inhibition at 12.5 µg/mL [2]: 4%
Cc1cc(=O)oc2c(C)c3c(cc12)CC([CH2][Hg][I])O3 (stereo not shown) [R = H, T = HgI, 4,8-Dimethyl-5'-iodomercurimethyl-4',5'-dihydropsoralen] | – | 1.3 µM | 4.2 µM | MIC (Aspergillus niger): < 8; MIC (Chlorella vulgaris): 9
Cc1cc(=O)oc2c(C)c3c(cc12)CC(CN(CCO)CCO)O3 (stereo not drawn) [R = H, T = N(CH2 CH2 OH)2, 4,8-Dimethyl-5'-[N,N-β-(hydroxyethylamino)-methyl]-4',5'-dihydropsoralen] | 0.31 µM | – | – | –
Cc1cc(=O)oc2c(C)c3c(cc12)CC([CH2][Hg][Cl])O3 (stereo not shown) [R = H, T = HgCl, 4,8-Dimethyl-5'-chloromercurimethyl-4',5'-dihydropsoralen] | – | 6.1 µM | 15 µM | MIC (Aspergillus niger): < 8; MIC (Chlorella vulgaris): 10
CC(=O)[O][Hg][CH2]C1Cc2cc3c(C)cc(=O)oc3c(C)c2O1 (stereo not shown) [R = H, T = HgOAc, 4,8-Dimethyl-5'-acetomercurimethyl-4',5'-dihydropsoralen] | – | 4.8 µM | 6.2 µM | MIC (Aspergillus niger): < 8; MIC (Chlorella vulgaris): 10
Cc1cc(=O)oc2c(C)c3c(cc12)CC(CN1CCOCC1)O3 (stereo not shown) [R = H, T = morpholino, 4,8-Dimethyl-5'-morpholinomethyl-4',5'-dihydropsoralen] | 3.2 µM | – | – | –
Cc1c(C#N)c(=O)oc2c(C)c3c(cc12)CC(C[n+]1ccccc1)O3 (stereo not shown) [R = CN, T = pyridinium iodide salt, 3-Cyano-4,8-dimethyl-5'-(N-pyridiniummethyl)-4',5'-dihydropsoralen Iodide Salt] | 1000 µM | – | – | –
Cc1cc(=O)oc2c(C)c3c(cc12)CC(C[n+]1ccccc1)O3 (stereo not shown) [R = H, T = pyridinium iodide salt, 4,8-Dimethyl-5'-(N-pyridiniummethyl)-4',5'-dihydropsoralen Iodide Salt] | 0.37 µM | – | – | –
Cc1c(Br)c(=O)oc2c(C)c3c(cc12)CC(C[n+]1ccccc1)O3 (stereo not shown) [R = Br, T = pyridinium iodide salt, 3-Bromo-4,8-dimethyl-5'-(N-pyridiniummethyl)-4',5'-dihydropsoralen Iodide Salt] | 1.6 µM | – | – | –
[Cl][Hg][CH2]C1Cc2ccccc2O1 (stereo not shown) [T = HgCl, 2-Chloromercurimethyl-2,3-dihydrobenzofuran] | – | 5.9 µM | 13 µM | MIC (Aspergillus niger): 24; MIC (Chlorella vulgaris): 10
Cc1c(Br)c(=O)oc2c(C)c3c(cc12)CC(CI)O3 (stereo not shown) [R = Br, T = I, 3-Bromo-4,8-dimethyl-5'-iodomethyl-4',5'-dihydropsoralen] | 0.48 µM | – | – | inhibition at 12.5 µg/mL [2]: 25%
Cc1cc(=O)oc2c(C)c3c(cc12)CC(CN1CC(C)OC(C)C1)O3 (stereo not shown) [R = H, T = 2,6-dimethylmorpholine, 4,8-Dimethyl-5'-(2,6-dimethylmorpholino)methyl-4',5'-dihydropsoralen] | 0.01 µM | – | – | –
Cc1c(C#N)c(=O)oc2c(C)c3c(cc12)CC(CBr)O3 (stereo not shown) [R = CN, T = Br, 3-Cyano-4,8-dimethyl-5'-bromomethyl-4',5'-dihydropsoralen] | – | 6.4 µM | – | –
Cc1c(C#N)c(=O)oc2c(C)c3c(cc12)CC(CI)O3 (stereo not shown) [R = CN, T = I, 3-Cyano-4,8-dimethyl-5'-iodomethyl-4',5'-dihydropsoralen] | 2.1 µM | – | – | –
4,8-dimethyl-5'-trifluoroacetomercurimethyl-4',5'-dihydropsoralen [R = H, T = Hg-O-COCF3] | – | 4.2 µM | 7 µM | MIC (Aspergillus niger): 16; MIC (Chlorella vulgaris): 10
Cc1c(F)c(=O)oc2c(C)c3c(cc12)CC(CI)O3 (stereo not shown) [R = F, T = I, 3-Fluoro-4,8-dimethyl-5'-iodomethyl-4',5'-dihydrofurocoumarin] | 62 µM | – | – | inhibition at 12.5 µg/mL [2]: 31%
CC(=O)[O][Hg][CH2]C1Cc2cc3c(C)c(F)c(=O)oc3c(C)c2O1 (stereo not shown) [R = F, T = HgOAc, 3-Fluoro-4,8-dimethyl-5'-acetomercurimethyl-4',5'-dihydropsoralen] | – | 9.3 µM | 14 µM | –
Cc1c(Br)c(=O)oc2c(C)c3c(cc12)CC(CN1C(=O)c2ccccc2C1=O)O3 (stereo not shown) [R = Br, T = phthalimido] | 3.9 µM | – | – | –
CC(=O)[O][Hg][CH2]C1Cc2cc3c(C)c(C#N)c(=O)oc3c(C)c2O1 (stereo not shown) [R = CN, T = HgOAc, 3-Cyano-4,8-dimethyl-5'-acetomercurimethyl-4',5'-dihydropsoralen] | – | 20 µM | 30 µM | –
Cc1cc(=O)oc2c(C)c3c(cc12)CC(CI)O3 (stereo not shown) [R = H, T = I, 4,8-Dimethyl-5'-iodomethyl-4',5'-dihydropsoralen] | 1.1 µM | – | – | inhibition at 12.5 µg/mL [2]: 24%

From patent US6255324A, “Amino-and mercurio-substituted 4',5'-dihydropsoralens and therapeutical uses thereof” (priority 1998, dated 2001)
